# Experimental data taken from ChEMBL document CHEMBL3425477, “Compounds from the insect Blaps japanensis with COX-1 and COX-2 inhibitory activities” (Bioorg Med Chem Lett, 2015).
# Key:
# [1] = target: T1, Prostaglandin G/H synthase 1 (Ovis aries, UniProt P05979); assay: Inhibition of ovine COX1 pre-incubated for 15 mins followed by addition of heme and fluorometric substrate and further incubated for 15 mins in presence of arachidonic acid by fluorescence based assay
# T1 sequence (P05979 whole entry): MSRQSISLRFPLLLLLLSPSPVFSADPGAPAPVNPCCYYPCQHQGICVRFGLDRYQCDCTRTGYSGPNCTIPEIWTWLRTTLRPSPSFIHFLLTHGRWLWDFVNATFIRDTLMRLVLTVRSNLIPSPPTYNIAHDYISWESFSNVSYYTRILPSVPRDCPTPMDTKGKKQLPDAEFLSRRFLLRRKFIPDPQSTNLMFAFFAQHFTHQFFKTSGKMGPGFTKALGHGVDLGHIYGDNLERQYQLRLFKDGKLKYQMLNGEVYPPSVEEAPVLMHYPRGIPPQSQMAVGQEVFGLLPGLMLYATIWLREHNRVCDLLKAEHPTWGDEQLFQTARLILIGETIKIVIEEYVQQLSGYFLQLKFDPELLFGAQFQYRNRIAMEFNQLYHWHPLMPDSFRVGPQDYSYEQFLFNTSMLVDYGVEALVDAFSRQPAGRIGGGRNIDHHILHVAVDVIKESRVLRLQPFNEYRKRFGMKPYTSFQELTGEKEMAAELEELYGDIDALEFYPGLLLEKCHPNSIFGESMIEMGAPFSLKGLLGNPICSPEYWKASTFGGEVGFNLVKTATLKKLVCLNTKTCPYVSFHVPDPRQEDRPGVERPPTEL
# [2] = target: T2, Prostaglandin G/H synthase 2 (Homo sapiens, UniProt P35354); assay: Inhibition of human recombinant COX2 pre-incubated for 15 mins followed by addition of heme and fluorometric substrate and further incubated for 15 mins in presence of arachidonic acid by fluorescence based assay
# T2 sequence (P35354 whole entry): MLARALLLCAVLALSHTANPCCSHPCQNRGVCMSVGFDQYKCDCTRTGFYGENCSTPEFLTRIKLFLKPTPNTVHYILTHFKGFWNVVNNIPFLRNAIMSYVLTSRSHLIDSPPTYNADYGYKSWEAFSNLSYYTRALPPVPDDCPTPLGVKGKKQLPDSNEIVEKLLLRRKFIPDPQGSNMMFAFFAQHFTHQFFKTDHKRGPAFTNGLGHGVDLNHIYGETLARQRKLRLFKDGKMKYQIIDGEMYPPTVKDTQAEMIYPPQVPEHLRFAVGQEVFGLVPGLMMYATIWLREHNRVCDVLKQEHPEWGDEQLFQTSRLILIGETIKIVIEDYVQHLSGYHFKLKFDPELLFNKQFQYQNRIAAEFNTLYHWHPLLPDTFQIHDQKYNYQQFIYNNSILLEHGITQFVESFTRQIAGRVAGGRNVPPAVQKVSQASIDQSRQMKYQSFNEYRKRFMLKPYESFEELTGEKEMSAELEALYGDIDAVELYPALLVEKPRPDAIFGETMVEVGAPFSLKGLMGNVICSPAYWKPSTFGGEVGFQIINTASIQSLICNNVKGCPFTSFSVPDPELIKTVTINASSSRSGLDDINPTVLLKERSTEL
SMILES,IC50 [1],IC50 [2],IC50 ([1]; read-out: IC50)
CO[C@]1(c2ccc(O)c(O)c2)Oc2ccc(CCO)cc2O[C@H]1O,Not Active,6.02 µM,
CCO[C@@]1(c2ccc(O)c(O)c2)Oc2cc(CCO)ccc2O[C@@H]1O,Not Active,13.7 µM,
CCOC1(c2ccc(O)c(O)c2)Oc2ccc(CCO)cc2OC1O (stereo unspecified),Not Active,6.04 µM,
CC(=O)NCCc1ccc2c(c1)O[C@H](NC(C)=O)[C@@H](c1ccc(O)c(O)c1)O2,Not Active,2.6 µM,
CO[C@@]1(c2ccc(O)c(O)c2)Oc2cc(CCO)ccc2O[C@@H]1O,Not Active,17.8 µM,
CO[C@@]1(c2ccc(O)c(O)c2)Oc2ccc(CCO)cc2O[C@@H]1O,Not Active,8.24 µM,
CC(=O)N[C@H]1Oc2ccc(CCO)cc2O[C@@H]1c1ccc(O)c(O)c1 (relative stereo),Not Active,2.5 µM,
CO[C@]1(c2ccc(O)c(O)c2)Oc2cc(CCO)ccc2O[C@H]1O,Not Active,9.7 µM,
CC(=O)N[C@H]1Oc2cc(CCO)ccc2O[C@@H]1c1ccc(O)c(O)c1 (relative stereo),Not Active,1.3 µM,
CCO[C@]1(c2ccc(O)c(O)c2)Oc2cc(CCO)ccc2O[C@H]1O,Not Active,8.6 µM,
CC(=O)NCCc1ccc2c(c1)O[C@H](c1ccc(O)c(O)c1)[C@@H](NC(C)=O)O2 (relative stereo),Not Active,3.6 µM,
CCO[C@@]1(c2ccc(O)c(O)c2)Oc2ccc(CCO)cc2O[C@@H]1O,Not Active,2.52 µM,
CC(=O)/N=C/Cc1ccc2c(c1)O[C@H](c1ccc(O)c(O)c1)[C@@H](NC(C)=O)O2 (relative stereo),,2.7 µM,13.8 µM
